This note sets out measurements from US8546377B2 (AbbVie Inc., priority 2009, dated 2013).

pEC50: −log10 of the molar value. Where two headings read alike, the source gives them in different places. A value given as a limit tells only on which side of the number the result lay.

The target in one test is T1, 5HT2B receptors (Homo sapiens, UniProt P41595).
T1 construct: expressed in transfected cells; host or cells: CHO-K1 cells
The experiment in a line: Human 5-HT2B functional assay in CHO-K1 cells (calcium flux, FLIPR). The test is classed as cell-based. Conditions: for EC50: CHO-K1 cells over-expressing 5HT2B, calcium flux, read-out: EC50 (μM), 5-HT2B Agonist Activity. In short, it runs like this: (§1)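 EC50 came from a 4-parameter logistic fit, with Emax expressed relative to serotonin, of intracellular Ca2+ rises read on FLIPR at 480/530 nm, 25° C, over 3 min. Compounds ran from 10 μM in six 1:10 steps (0.2% DMSO) on serum-starved CHO-K1 transfectants pre-loaded 60 min with Ca4 dye and probenecid.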

The next test has as its target T2, 5HT2C receptors (Homo sapiens, UniProt P28335).
T2 sequence (P28335 33-458): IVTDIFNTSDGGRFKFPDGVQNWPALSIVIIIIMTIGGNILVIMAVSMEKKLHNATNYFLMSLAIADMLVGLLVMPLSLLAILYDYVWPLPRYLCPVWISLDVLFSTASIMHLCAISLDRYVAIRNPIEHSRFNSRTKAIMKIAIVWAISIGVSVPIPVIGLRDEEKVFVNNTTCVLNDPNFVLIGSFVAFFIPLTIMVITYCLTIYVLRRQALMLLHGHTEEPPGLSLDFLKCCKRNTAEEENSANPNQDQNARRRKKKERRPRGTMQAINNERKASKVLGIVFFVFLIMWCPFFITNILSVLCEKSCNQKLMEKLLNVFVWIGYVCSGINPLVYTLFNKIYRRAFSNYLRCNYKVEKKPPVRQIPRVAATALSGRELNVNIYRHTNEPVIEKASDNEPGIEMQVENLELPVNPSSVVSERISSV
The experiment in a line: Human 5-HT2C functional assay in CHO-K1 cells (calcium flux, FLIPR). The test is classed as cell-based. On the set-up: expressed in transfected cells; host or cells: CHO-K1 cells. Conditions: for Emax: percentage relative to the effect of serotonin; for EC50: CHO-K1 cells over-expressing 5HT2C, calcium flux, read-out: EC50 (μM), 5-HT2c Agonist Activity. In short, it runs like this: as §1
(Calcium flux is commonly read through the fluorescence of an indicator in the cells.)

Where [1] appears, read: CHO-K1, read-out: Emax (%), 5-HT2B Agonist Activity.
The mark [2] stands for this setting: CHO-K1, read-out: Emax (%), 5-HT2c Agonist Activity, CHO-K1 cells.
Setting [3] is: CHO-K1 cells, read-out: Emax (%), 5-HT2c Agonist Activity.
[4] abbreviates: CHO-K1 cells, percentage relative to the effect of serotonin, read-out: Emax (%), 5-HT2B Agonist Activity.

T1 sequence (P41595 whole entry): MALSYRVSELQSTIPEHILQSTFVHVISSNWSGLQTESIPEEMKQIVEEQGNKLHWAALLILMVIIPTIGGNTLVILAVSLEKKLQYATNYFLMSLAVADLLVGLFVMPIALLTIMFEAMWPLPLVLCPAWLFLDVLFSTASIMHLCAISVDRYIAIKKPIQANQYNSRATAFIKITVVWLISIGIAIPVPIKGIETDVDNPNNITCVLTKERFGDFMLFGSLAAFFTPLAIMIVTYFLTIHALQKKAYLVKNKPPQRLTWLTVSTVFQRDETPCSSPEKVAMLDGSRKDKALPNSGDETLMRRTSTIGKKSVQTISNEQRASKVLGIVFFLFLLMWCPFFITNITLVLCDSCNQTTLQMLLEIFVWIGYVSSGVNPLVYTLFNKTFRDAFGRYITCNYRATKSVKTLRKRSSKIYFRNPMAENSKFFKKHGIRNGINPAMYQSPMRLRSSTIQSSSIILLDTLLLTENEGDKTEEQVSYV

The pEC50 is the negative decadic logarithm of the EC50, by convention in mol/L. Usually Emax stands for the greatest response seen or fitted, relative to the assay's reference. For the compound `O=C1C[C@@H]2CNCCN2c2cccc(F)c2N1` [Example 83, (4aR)-8-fluoro-1,2,3,4,4a,5-hexahydropyrazino[1,2-a][1,5]benzodiazepin-6(7H)-one], the pEC50 on 5HT2B receptors is 5.98; at 5HT2C receptors, 6.12. Further, the values for the Emax on 5HT2B receptors (setting [1]) and on 5HT2C receptors (setting [2]) were 27% and over 120%, respectively.
As a reminder, the EC50 is the concentration giving half of the maximal effect. In the case of `Oc1ccccc1-c1ccc2c(c1)N1CCNC[C@@H]1CCO2` [Example 200, 2-[(4aS)-2,3,4,4a,5,6-hexahydro-1H-pyrazino[2,1-d][1,5]benzoxazepin-10-yl]phenol], the concentration giving a half-maximal response (EC50) is over 10 µM on 5HT2B receptors and 0.01 µM on 5HT2C receptors. In addition, the maximal effect (Emax) on 5HT2C receptors (setting [3]) was over 120%.
As to `CC(=O)c1cccc(-c2ccc3c(c2)N2CCNC[C@@H]2CCO3)c1` [Example 198, 1-{3-[(4aS)-2,3,4,4a,5,6-hexahydro-1H-pyrazino[2,1-d][1,5]benzoxazepin-10-yl]phenyl}ethanone], the figures for the concentration for a half-maximal effect (EC50) on 5HT2B receptors and on 5HT2C receptors were 1 µM and 0.01 µM, respectively. Moreover, the figures for the maximum response (Emax) on 5HT2B receptors (setting [4]) and on 5HT2C receptors (setting [3]) were 25% and over 120%, respectively.
Take `FC(F)(F)c1ccc2c(c1)OCC[C@H]1CNCCN21` [Example 216, (4aS)-9-(trifluoromethyl)-2,3,4,4a,5,6-hexahydro-1H-pyrazino[2,1-d][1,5]benzoxazepine]: the figures for the EC50 on 5HT2B receptors and at 5HT2C receptors were over 10 µM and 0.07 µM, respectively. Moreover, the maximal response (Emax) at 5HT2C receptors (setting [3]) amounted to 55%.
`O=C1C[C@H]2CNCCN2c2ccc(Cl)cc2N1` [Example 55, (4aS)-9-chloro-1,2,3,4,4a,5-hexahydropyrazino[1,2-a][1,5]benzodiazepin-6(7H)-one]: the values for the negative logarithm of the EC50 (pEC50) on 5HT2B receptors and at 5HT2C receptors were under 5.00 and 7.70, respectively. In addition, on 5HT2C receptors (setting [2]), the Emax is over 120%.
On to `O=C1CC2CNCCN2c2cc(C3CC3)ccc2N1` (stereo not drawn) [Example 52, 10-cyclopropyl-1,2,3,4,4a,5-hexahydropyrazino[1,2-a][1,5]benzodiazepin-6(7H)-one], for which the EC50 is over 10 µM at 5HT2B receptors and 0.05 µM on 5HT2C receptors. Further, the Emax on 5HT2C receptors (setting [3]) is over 80%.
For the compound `CCN1C(=O)CC2CNCCN2c2ccc(Cl)cc21` (stereo not drawn) [Example 77, 9-chloro-7-ethyl-1,2,3,4,4a,5-hexahydropyrazino[1,2-a][1,5]-benzodiazepin-6(7H)-one], the concentration giving a half-maximal response (EC50) was over 10 µM at 5HT2B receptors and 0.2 µM at 5HT2C receptors. Besides, on 5HT2C receptors (setting [3]), the maximum response (Emax) is 100%.
Regarding `O=C1C[C@H]2CNCCN2c2cc(OCCc3ccccc3F)ccc2N1` [Example 118, (4aS)-10-[2-(2-fluorophenyl)ethoxy]-1,2,3,4,4a,5-hexahydropyrazino[1,2-a][1,5]benzodiazepin-6(7H)-one], the EC50 is over 10 µM at 5HT2B receptors and 0.009 µM at 5HT2C receptors. The Emax on 5HT2C receptors (setting [3]) is over 120%.
In the case of `O=C1C[C@@H]2CNCCN2c2c(F)cccc2N1` [Example 87, (4aR)-11-fluoro-1,2,3,4,4a,5-hexahydropyrazino[1,2-a][1,5]benzodiazepin-6(7H)-one], the values for the pEC50 on 5HT2B receptors and on 5HT2C receptors were under 5.00 and 6.05, respectively. In addition, on 5HT2C receptors (setting [2]), the Emax was over 120%.
Take `C[C@@H]1CN2c3ccccc3OCC[C@H]2CN1` [Example 266, (2R,4aS)-2-methyl-2,3,4,4a,5,6-hexahydro-1H-pyrazino[2,1-d][1,5]benzoxazepine]: the pEC50 on 5HT2B receptors is 6.30; on 5HT2C receptors, 7.00. The maximum response (Emax) at 5HT2B receptors (setting [1]) was 15%; on 5HT2C receptors (setting [2]), 70%.
As to `CS(=O)(=O)c1cccc(-c2ccc3c(c2)OCC[C@H]2CNCCN32)c1` [Example 238, (4aS)-9-[3-(methylsulfonyl)phenyl]-2,3,4,4a,5,6-hexahydro-1H-pyrazino[2,1-d][1,5]benzoxazepine], the EC50 at 5HT2B receptors is over 10 µM; on 5HT2C receptors it was 0.3 µM. At 5HT2C receptors (setting [3]), the maximum response (Emax) was determined as 90%.
For `Nc1ccc2c(c1)OCC[C@H]1CNCCN21` [Example 135, (4aS)-2,3,4,4a,5,6-hexahydro-1H-pyrazino[2,1-d][1,5]benzoxazepin-9-amine], the concentration for a half-maximal effect (EC50) on 5HT2B receptors was over 10 µM; at 5HT2C receptors, 1 µM. Further, the Emax at 5HT2C receptors (setting [2]) amounted to 80%.
As to `COc1ccc(-c2ccc3c(c2)N2CCNC[C@@H]2CCO3)cc1` [Example 194, (4aS)-10-(4-methoxyphenyl)-2,3,4,4a,5,6-hexahydro-1H-pyrazino[2,1-d][1,5]benzoxazepine], the EC50 is over 10 µM at 5HT2B receptors and 0.4 µM on 5HT2C receptors. On 5HT2C receptors (setting [3]), the Emax was over 120%.
As to `O=C1CC2CNCCN2c2cc(OCc3cccc(F)c3)ccc2N1` (stereo not drawn) [Example 156, 10-[(3-fluorobenzyl)oxy]-1,2,3,4,4a,5-hexahydropyrazino[1,2-a][1,5]benzodiazepin-6(7H)-one], the EC50 at 5HT2B receptors turned out to be 0.35 µM; on 5HT2C receptors, 0.0059 µM. Moreover, the Emax was 77% on 5HT2B receptors (setting [4]) and over 120% on 5HT2C receptors (setting [3]).
In the case of `Brc1ccc2c(c1)NCC[C@H]1CNCCN21` [Example 54, (4aS)-9-bromo-1,2,3,4,4a,5,6,7-octahydropyrazino[1,2-a][1,5]benzodiazepine], the pEC50 is under 5.00 at 5HT2B receptors and 7.15 at 5HT2C receptors. The Emax at 5HT2C receptors (setting [2]) turned out to be 110%.
As for `Fc1cccc2c1OCC[C@@H]1CNCCN21` [Example 270, (4aR)-8-fluoro-2,3,4,4a,5,6-hexahydro-1H-pyrazino[2,1-d][1,5]benzoxazepine], the negative logarithm of the EC50 (pEC50) on 5HT2B receptors is 7.40; at 5HT2C receptors, 9.05. Moreover, the Emax is 80% on 5HT2B receptors (setting [1]) and 90% on 5HT2C receptors (setting [2]).
With `FC(F)(F)c1cccc2c1OCC[C@H]1CNCCN21` [Example 215, (4aS)-8-(trifluoromethyl)-2,3,4,4a,5,6-hexahydro-1H-pyrazino[2,1-d][1,5]benzoxazepine], the EC50 is over 10 µM on 5HT2B receptors and 0.003 µM on 5HT2C receptors. Further, on 5HT2C receptors (setting [3]), the Emax was 110%.
As for `O=C1C[C@H]2CNCCN2c2cccc(F)c2N1` [Example 85, (4aS)-8-fluoro-1,2,3,4,4a,5-hexahydropyrazino[1,2-a][1,5]benzodiazepin-6(7H)-one], the pEC50 was under 5.00 on 5HT2B receptors and 8.29 on 5HT2C receptors. Further, on 5HT2C receptors (setting [2]), the Emax is over 120%.
`c1cncc(-c2cccc3c2OCC[C@H]2CNCCN32)c1` [Example 248, (4aS)-8-(pyridin-3-yl)-2,3,4,4a,5,6-hexahydro-1H-pyrazino[2,1-d][1,5]benzoxazepine]: the negative-log EC50 (pEC50) on 5HT2B receptors is under 5.00; on 5HT2C receptors, 9.15. The maximum response (Emax) on 5HT2C receptors (setting [2]) is 85%.
As to `O=C1CC2CNCCN2c2cc(-c3cccc(C(F)(F)F)c3)ccc2N1` (stereo not drawn) [Example 90, 10-[3-(trifluoromethyl)phenyl]-1,2,3,4,4a,5-hexahydropyrazino[1,2-a][1,5]benzodiazepin-6(7H)-one], the half-maximal effective concentration (EC50) on 5HT2B receptors is over 10 µM; on 5HT2C receptors, 0.02 µM. Further, the Emax at 5HT2C receptors (setting [3]) is over 120%.
Regarding `Clc1ccc2c(c1)OCC[C@H]1CNCCN21` [Example 179, (4aS)-9-chloro-2,3,4,4a,5,6-hexahydro-1H-pyrazino[2,1-d][1,5]benzoxazepine], the results for the pEC50 on 5HT2B receptors and at 5HT2C receptors were under 5.00 and 8.10, respectively. Besides, the Emax at 5HT2C receptors (setting [2]) was over 120%.
On to `c1cc(-c2ccsc2)c2c(c1)N1CCNC[C@@H]1CCO2` [Example 250, (4aS)-8-(3-thienyl)-2,3,4,4a,5,6-hexahydro-1H-pyrazino[2,1-d][1,5]benzoxazepine], for which the concentration for a half-maximal effect (EC50) was over 10 µM on 5HT2B receptors and 0.0001 µM on 5HT2C receptors. In addition, on 5HT2C receptors (setting [3]), the Emax was 95%.
Taken in the same sequence, the figures for `C1=C(c2ccc3c(c2)N2CCNC[C@@H]2CCO3)CCCC1` [Example 209, (4aS)-10-(cyclohex-1-en-1-yl)-2,3,4,4a,5,6-hexahydro-1H-pyrazino[2,1-d][1,5]benzoxazepine] were over 10 µM, 0.01 µM and over 120%.
Regarding `CC(O)c1cccc(-c2cccc3c2OCC[C@H]2CNCCN32)c1` (stereo partly drawn) [Example 233, 1-{3-[(4aS)-2,3,4,4a,5,6-hexahydro-1H-pyrazino[2,1-d][1,5]benzoxazepin-8-yl]phenyl}ethanol], the EC50 on 5HT2B receptors is over 10 µM; at 5HT2C receptors, 0.003 µM. In addition, at 5HT2C receptors (setting [3]), the Emax came out at 105%.
Turning to `O=C1CC2CNCCN2c2cc(OCc3ccccc3C(F)(F)F)ccc2N1` (stereo not drawn) [Example 157, 10-{[2-(trifluoromethyl)benzyl]oxy}-1,2,3,4,4a,5-hexahydropyrazino[1,2-a][1,5]benzodiazepin-6(7H)-one], the results for the concentration for a half-maximal effect (EC50) on 5HT2B receptors and on 5HT2C receptors were over 10 µM and 0.0295 µM, respectively. Further, the maximum response (Emax) at 5HT2C receptors (setting [3]) is over 120%.
For the compound `Cn1cc(-c2ccc3c(c2)N2CCNCC2CC(=O)N3)cn1` (stereo not drawn) [Example 60, 10-(1-methyl-1H-pyrazol-4-yl)-1,2,3,4,4a,5-hexahydropyrazino[1,2-a][1,5]benzodiazepin-6(7H)-one], the concentration giving a half-maximal response (EC50) at 5HT2B receptors came to 3 µM; at 5HT2C receptors, 0.4 µM. The Emax at 5HT2B receptors (setting [4]) is 50%; on 5HT2C receptors (setting [3]) it was over 120%.
